Data as given in patent US20250042900A1 (priority 2022, published 2025).
pEC50, pIC50: −log10 of the molar value. Where a name gives a salt, the structure may show the parent alone. Read-outs that look alike come from different tables or passages of the source.

Key:
[1] = biological target: T1, Opioid Receptor Mu (OPRM1) (Homo sapiens, UniProt P35372); assay: cell-based; details: cAMP, antagonist, read-out: IC50 (μM) Antag./Blocker/Inhibitor
[2] = biological target: T2, 5-Hydroxytryptamine (Serotonin) Receptor 2B (5-HT2B) (Homo sapiens, UniProt P41595); assay: Calcium flux secondary messenger assay, agonist format; assay type: cell-based; details: read-out: EC50 (μM) Agonist/Opener
[3] = biological target: T3, 5-Hydroxytryptamine (Serotonin) Receptor 3A (5-HT3A) (Homo sapiens, UniProt P46098); assay: Ion channel assay, opener format; assay type: cell-based; details: read-out: EC50 (μM) Agonist/Opener
T3 construct: expressed in transfected cells

[4] = biological target: Endothelin Receptor Type A (EDNRA) (Homo sapiens, UniProt P25101); assay: Calcium flux secondary messenger assay, agonist format; assay type: cell-based; details: read-out: EC50 (μM) Agonist/Opener
COX2 = biological target: T4, COX2 (Homo sapiens, UniProt P35354); assay: Enzymatic assay COX2; assay type: biochemical; details: inhibitor, read-out: IC50 (μM) Antag./Blocker/Inhibitor
T4 construct: purchased BPS Bioscience

[5] = biological target: Opioid Receptor Kappa 1 (OPRK1) (Homo sapiens, UniProt P41145); assay: cAMP secondary messenger assay, antagonist format; assay type: cell-based; details: read-out: IC50 (μM) Antag./Blocker/Inhibitor
[6] = biological target: Adrenergic Receptor α2A (ADRA2A) (Homo sapiens, UniProt P08913); assay: cAMP secondary messenger assay, antagonist format; assay type: cell-based; details: read-out: IC50 (μM) Antag./Blocker/Inhibitor
[7] = biological target: Cholecystokinin Receptor A (CCKAR) (Homo sapiens, UniProt P32238); assay: Calcium flux secondary messenger assay, antagonist format; assay type: cell-based; details: read-out: IC50 (μM) Antag./Blocker/Inhibitor
[8] = system: Gamma-aminobutyric acid Receptor A (GABAA); assay: Ion channel assay, blocker format; assay type: cell-based; details: read-out: IC50 (μM) Antag./Blocker/Inhibitor
[9] = biological target: Dopamine Receptor D2 (DRD2S) (Homo sapiens, UniProt P14416); assay: cAMP secondary messenger assay, agonist format; assay type: cell-based; details: read-out: EC50 (μM) Agonist/Opener
[10] = biological target: T3, 5-Hydroxytryptamine (Serotonin) Receptor 3A (5-HT3A); assay: Ion channel assay, blocker format; assay type: cell-based; details: read-out: IC50 (μM) Antag./Blocker/Inhibitor
[11] = biological target: HTR2A (5-hydroxytryptamine (serotonin) receptor 2A) (Homo sapiens, UniProt P28223); assay: In vitro activity at 5-HT2AR, agonist mode (calcium flux secondary messenger assay); assay type: cell-based
KvLQT1/minK = KvLQT1/minK (Homo sapiens, UniProt P51787); assay: Ion channel assay, opener format; assay type: cell-based; details: read-out: EC50 (μM) Agonist/Opener
[12] = biological target: 5-Hydroxytryptamine (Serotonin) Receptor 2A (5-HT2A) (Homo sapiens, UniProt P28223); assay: Calcium flux secondary messenger assay, antagonist format; assay type: cell-based; details: read-out: IC50 (μM) Antag./Blocker/Inhibitor
[13] = biological target: Adenosine Receptor A2A (ADORA2A) (Homo sapiens, UniProt P29274); assay: Calcium flux secondary messenger assay, agonist format; assay type: cell-based; details: read-out: EC50 (μM) Agonist/Opener
[14] = biological target: T5, Cannabinoid Receptor 2 (CNR2) (Homo sapiens, UniProt P34972); assay: cAMP secondary messenger assay, agonist format; assay type: cell-based; details: read-out: EC50 (μM) Agonist/Opener
[15] = biological target: T6, 5-Hydroxytryptamine (Serotonin) Receptor 1A (5-HT1A) (Homo sapiens, UniProt P08908); assay: cAMP secondary messenger assay, antagonist format; assay type: cell-based; details: read-out: IC50 (μM) Antag./Blocker/Inhibitor
T6 construct: host or cells: cAMP Hunter cell line

[16] = biological target: Muscarinic acetylcholine Receptor M2 (CHRM2) (Homo sapiens, UniProt P08172); assay: cAMP secondary messenger assay, antagonist format; assay type: cell-based; details: read-out: IC50 (μM) Antag./Blocker/Inhibitor
[17] = biological target: T2, 5-Hydroxytryptamine (Serotonin) Receptor 2B (5-HT2B); assay: Calcium flux secondary messenger assay, antagonist format; assay type: cell-based; details: read-out: IC50 (μM) Antag./Blocker/Inhibitor
[18] = biological target: T5, Cannabinoid Receptor 2 (CNR2); assay: cAMP secondary messenger assay, antagonist format; assay type: cell-based; details: read-out: IC50 (μM) Antag./Blocker/Inhibitor
[19] = biological target: Histamine Receptor H1 (HRH1) (Homo sapiens, UniProt P35367); assay: cell-based; details: Calcium Flux, antagonist, read-out: IC50 (μM) Antag./Blocker/Inhibitor
[20] = biological target: T7, Rho Associated Coiled-Coil Containing Protein Kinase 1 (ROCK1) (Homo sapiens, UniProt Q13464); assay: Kinase binding assay (KINOMEscan); details: inhibitor, read-out: IC50 (μM) Antag./Blocker/Inhibitor
T7 construct: T7 phage fusion (most assays) or DNA tag for qPCR (the remaining kinases); made in house; host or cells: E. coli (BL21-derived, T7 phage display) or HEK-293

[21] = system: Gamma-aminobutyric acid Receptor A (GABAA); assay: Ion channel assay, opener format; assay type: cell-based; details: read-out: EC50 (μM) Agonist/Opener
[22] = biological target: Muscarinic acetylcholine Receptor M3 (CHRM3) (Homo sapiens, UniProt P20309); assay: cell-based; details: Calcium Flux, antagonist, read-out: IC50 (μM) Antag./Blocker/Inhibitor
[23] = biological target: Nuclear Hormone Glucocorticoid Receptor (GR) (Homo sapiens, UniProt P04150); assay: NHR Protein Interaction assay, agonist format; assay type: cell-based; details: read-out: EC50 (μM) Agonist/Opener
dopamine transporter = dopamine transporter (Homo sapiens, UniProt Q01959); assay: Monoamine transporter uptake assay (Neurotransmitter Transporter Uptake Assay Kit), blocker format
[24] = biological target: T1, Opioid Receptor Mu (OPRM1); assay: cell-based; details: cAMP, agonist, read-out: EC50 (μM) Agonist/Opener
[25] = biological target: Cannabinoid Receptor 1 (CNR1) (Homo sapiens, UniProt P21554); assay: cAMP secondary messenger assay, antagonist format; assay type: cell-based; details: read-out: IC50 (μM) Antag./Blocker/Inhibitor
[26] = biological target: Histamine Receptor H2 (HRH2) (Homo sapiens, UniProt P25021); assay: cAMP secondary messenger assay, antagonist format; assay type: cell-based; details: read-out: IC50 (μM) Antag./Blocker/Inhibitor
PDE3A = biological target: T8, PDE3A (Homo sapiens, UniProt Q14432); assay: Enzymatic assay PDE3A; assay type: biochemical; details: inhibitor, read-out: IC50 (μM) Antag./Blocker/Inhibitor
T8 construct: purchased Signal Chem

[27] = biological target: Opioid Receptor Delta 1 (OPRD1) (Homo sapiens, UniProt P41143); assay: cAMP secondary messenger assay, agonist format; assay type: cell-based; details: read-out: EC50 (μM) Agonist/Opener

Chain of HTR2A (5-hydroxytryptamine (serotonin) receptor 2A) (P28223 whole entry): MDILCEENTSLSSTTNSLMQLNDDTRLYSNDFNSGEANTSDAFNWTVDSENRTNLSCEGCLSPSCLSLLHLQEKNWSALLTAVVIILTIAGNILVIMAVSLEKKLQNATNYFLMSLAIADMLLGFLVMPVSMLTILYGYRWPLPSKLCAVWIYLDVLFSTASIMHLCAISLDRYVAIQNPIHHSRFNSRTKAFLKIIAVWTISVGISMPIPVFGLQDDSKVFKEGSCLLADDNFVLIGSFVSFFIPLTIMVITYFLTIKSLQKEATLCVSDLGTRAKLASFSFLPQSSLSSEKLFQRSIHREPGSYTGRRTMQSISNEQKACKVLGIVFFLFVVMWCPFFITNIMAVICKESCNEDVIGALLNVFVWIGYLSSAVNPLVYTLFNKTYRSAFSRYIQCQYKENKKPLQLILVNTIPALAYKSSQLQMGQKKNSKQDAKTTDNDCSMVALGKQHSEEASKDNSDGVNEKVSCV
T3 sequence (P46098 24-478): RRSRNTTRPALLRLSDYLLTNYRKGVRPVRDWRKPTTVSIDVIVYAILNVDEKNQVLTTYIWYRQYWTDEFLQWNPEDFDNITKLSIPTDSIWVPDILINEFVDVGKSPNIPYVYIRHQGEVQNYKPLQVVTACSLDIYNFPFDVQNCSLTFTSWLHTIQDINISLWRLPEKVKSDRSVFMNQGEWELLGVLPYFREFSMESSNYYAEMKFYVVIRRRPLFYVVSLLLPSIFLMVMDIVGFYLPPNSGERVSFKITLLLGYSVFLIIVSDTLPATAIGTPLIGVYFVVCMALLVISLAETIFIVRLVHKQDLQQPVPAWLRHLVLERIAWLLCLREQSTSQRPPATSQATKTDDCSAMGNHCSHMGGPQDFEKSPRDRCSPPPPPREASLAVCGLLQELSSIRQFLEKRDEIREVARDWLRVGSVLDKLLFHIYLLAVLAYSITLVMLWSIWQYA
T2 sequence (P41595 whole entry): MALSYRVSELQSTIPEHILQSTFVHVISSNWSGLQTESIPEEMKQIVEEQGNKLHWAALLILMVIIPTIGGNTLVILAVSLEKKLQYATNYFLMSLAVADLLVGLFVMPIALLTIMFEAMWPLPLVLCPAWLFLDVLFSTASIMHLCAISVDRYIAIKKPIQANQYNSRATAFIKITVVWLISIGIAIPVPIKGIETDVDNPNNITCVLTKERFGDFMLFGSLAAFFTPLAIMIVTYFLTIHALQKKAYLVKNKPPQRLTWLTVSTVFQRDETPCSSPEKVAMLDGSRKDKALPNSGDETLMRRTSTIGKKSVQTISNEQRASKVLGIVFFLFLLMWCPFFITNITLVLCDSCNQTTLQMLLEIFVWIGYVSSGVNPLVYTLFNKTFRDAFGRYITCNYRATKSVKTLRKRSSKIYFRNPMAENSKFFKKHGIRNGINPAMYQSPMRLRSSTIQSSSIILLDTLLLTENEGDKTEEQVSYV
T5 sequence (P34972 whole entry): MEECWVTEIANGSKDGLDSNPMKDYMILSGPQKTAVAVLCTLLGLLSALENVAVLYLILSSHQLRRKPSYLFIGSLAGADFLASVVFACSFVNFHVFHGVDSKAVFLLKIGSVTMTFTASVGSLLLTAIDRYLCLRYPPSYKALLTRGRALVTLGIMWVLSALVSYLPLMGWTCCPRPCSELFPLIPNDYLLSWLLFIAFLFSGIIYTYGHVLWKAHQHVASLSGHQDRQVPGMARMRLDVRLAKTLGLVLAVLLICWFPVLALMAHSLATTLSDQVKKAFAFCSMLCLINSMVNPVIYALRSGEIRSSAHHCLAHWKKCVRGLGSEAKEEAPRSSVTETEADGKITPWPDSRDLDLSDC
T1 sequence (P35372 whole entry): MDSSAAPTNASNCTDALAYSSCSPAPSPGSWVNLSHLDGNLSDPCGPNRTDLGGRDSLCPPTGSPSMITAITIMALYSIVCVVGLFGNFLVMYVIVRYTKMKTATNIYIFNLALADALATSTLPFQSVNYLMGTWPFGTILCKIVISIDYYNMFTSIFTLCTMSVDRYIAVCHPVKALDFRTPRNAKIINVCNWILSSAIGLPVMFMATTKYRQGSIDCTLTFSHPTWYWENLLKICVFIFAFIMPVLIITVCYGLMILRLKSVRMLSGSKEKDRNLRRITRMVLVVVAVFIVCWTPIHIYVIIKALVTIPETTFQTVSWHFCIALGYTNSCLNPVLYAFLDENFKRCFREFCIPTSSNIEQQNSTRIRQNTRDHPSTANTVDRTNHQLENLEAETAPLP
Chain of KvLQT1/minK (P51787 whole entry): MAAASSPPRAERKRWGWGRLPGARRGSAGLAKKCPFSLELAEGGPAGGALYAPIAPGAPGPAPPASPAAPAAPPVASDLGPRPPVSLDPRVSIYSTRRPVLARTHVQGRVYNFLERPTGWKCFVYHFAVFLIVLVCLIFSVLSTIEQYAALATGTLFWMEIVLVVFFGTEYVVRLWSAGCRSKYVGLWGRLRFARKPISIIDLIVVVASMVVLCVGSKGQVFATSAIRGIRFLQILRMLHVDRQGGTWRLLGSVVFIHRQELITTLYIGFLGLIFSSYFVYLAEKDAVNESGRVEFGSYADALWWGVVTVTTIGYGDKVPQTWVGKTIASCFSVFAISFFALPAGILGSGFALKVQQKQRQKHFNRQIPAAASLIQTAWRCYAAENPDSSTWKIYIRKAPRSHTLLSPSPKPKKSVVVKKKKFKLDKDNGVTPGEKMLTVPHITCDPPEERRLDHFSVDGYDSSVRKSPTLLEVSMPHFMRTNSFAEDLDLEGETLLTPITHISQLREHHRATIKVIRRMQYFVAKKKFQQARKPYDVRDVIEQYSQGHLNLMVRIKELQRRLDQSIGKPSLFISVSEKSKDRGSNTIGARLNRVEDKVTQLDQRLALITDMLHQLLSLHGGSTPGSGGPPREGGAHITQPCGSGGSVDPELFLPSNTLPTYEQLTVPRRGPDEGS
Chain of dopamine transporter (Q01959 whole entry): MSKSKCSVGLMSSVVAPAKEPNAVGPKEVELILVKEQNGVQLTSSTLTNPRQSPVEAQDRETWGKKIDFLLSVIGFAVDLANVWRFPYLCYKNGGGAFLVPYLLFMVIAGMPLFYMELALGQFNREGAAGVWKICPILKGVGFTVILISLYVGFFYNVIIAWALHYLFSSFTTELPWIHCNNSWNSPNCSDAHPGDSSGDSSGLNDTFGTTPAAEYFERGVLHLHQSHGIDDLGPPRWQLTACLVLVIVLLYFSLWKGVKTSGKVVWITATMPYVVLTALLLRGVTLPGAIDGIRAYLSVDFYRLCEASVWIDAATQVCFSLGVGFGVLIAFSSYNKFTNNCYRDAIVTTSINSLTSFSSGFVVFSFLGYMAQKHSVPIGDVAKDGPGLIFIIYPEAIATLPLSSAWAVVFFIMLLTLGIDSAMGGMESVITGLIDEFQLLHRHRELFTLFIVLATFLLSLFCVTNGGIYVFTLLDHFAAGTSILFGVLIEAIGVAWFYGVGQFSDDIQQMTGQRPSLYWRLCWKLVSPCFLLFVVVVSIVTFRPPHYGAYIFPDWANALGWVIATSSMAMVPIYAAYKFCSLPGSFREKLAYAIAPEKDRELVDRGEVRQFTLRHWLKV
Chain of Cannabinoid Receptor 1 (CNR1) (P21554 whole entry): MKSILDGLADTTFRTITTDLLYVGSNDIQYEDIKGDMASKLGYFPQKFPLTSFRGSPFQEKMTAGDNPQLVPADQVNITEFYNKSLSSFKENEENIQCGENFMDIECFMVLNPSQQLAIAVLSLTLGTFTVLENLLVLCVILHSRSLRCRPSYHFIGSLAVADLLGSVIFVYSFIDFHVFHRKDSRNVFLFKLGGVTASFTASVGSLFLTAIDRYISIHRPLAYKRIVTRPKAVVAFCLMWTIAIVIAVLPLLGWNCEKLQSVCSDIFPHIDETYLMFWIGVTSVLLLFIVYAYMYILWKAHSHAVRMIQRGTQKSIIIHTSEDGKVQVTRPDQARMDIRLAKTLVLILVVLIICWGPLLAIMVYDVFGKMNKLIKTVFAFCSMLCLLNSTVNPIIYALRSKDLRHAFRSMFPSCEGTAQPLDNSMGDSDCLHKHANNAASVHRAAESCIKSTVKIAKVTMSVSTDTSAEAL
Chain of Nuclear Hormone Glucocorticoid Receptor (GR) (P04150 whole entry): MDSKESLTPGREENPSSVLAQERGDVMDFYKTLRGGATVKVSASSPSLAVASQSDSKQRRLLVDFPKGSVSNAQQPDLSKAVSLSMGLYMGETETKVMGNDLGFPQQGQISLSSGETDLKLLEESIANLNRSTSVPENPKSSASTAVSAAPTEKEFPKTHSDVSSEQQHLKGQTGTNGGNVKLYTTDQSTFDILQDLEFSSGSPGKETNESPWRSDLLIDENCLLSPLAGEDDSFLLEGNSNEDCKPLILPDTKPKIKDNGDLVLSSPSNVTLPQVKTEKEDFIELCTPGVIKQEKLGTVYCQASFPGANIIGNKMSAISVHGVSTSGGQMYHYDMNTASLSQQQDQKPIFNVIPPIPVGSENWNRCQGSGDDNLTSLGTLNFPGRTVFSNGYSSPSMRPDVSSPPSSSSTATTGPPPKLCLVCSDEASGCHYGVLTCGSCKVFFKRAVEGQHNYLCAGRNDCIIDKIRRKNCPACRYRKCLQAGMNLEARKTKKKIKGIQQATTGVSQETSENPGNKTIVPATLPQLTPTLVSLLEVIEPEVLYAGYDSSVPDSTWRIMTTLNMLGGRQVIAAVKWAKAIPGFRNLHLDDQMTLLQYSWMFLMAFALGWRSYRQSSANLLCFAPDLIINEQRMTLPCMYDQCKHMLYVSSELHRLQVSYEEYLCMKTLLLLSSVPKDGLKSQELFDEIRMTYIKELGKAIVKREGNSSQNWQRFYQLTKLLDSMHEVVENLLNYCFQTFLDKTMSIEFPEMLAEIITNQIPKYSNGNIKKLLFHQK

## CN(C)CCc1ccn2ccccc12 [28-12 oxalate, 2-(indolizin-1-yl)-N, N-dimethylethan-1-amine oxalate]
[1]
  IC50: > 30 µM
[2]
  EC50: > 30 µM
[3]
  EC50: > 30 µM
[4]
  EC50: > 30 µM
COX2
  IC50: > 30 µM
[5]
  IC50: > 30 µM
[6]
  IC50: > 30 µM
[7]
  IC50: > 30 µM
[8]
  IC50: > 30 µM
[9]
  EC50: > 30 µM
[10]
  IC50: 7.82 µM
[11]
  agonist effects at 5-HT2AR (in words): partial agonist effects
[11]; 5-HT2A, Calcium Flux, agonist, read-out: EC50 (μM) Agonist/Opener
  EC50: 0.052 µM
[11]; agonist, ten concentrations up to 30 μM, estimated, read-out: EC50 at 5-HT2AR
  pEC50: ~7.28
[11]; of the response produced by 5-HT, read-out: maximum effect at 5-HT2AR
  Emax: ~30%
KvLQT1/minK
  EC50: > 30 µM
[12]
  IC50: 1.08 µM
[13]
  EC50: > 30 µM
[14]
  EC50: > 30 µM
[15]
  IC50: > 30 µM
[16]
  IC50: > 30 µM
[17]
  IC50: 3.28 µM
[18]
  IC50: > 30 µM
[19]
  IC50: 9.27 µM
[20]
  IC50: > 30 µM
[21]
  EC50: > 30 µM
[22]
  IC50: > 30 µM
[23]
  EC50: > 30 µM
Dopamine transporter
  pIC50: < 4.52
[24]
  EC50: > 30 µM
[25]
  IC50: > 30 µM
[26]
  IC50: > 30 µM
PDE3A
  IC50: > 30 µM
[27]
  EC50: > 30 µM
